Test system: acute experimental autoimmune encephalomyelitis (aEAE)
Test: Acute experimental autoimmune encephalomyelitis (aEAE) inhibition in mice
Format: in vivo
Details: for aEAE inhibition (%): percent inhibition of clinical scores vs saline controls; for activity in the aEAE model (in words): mice, no dose stated
[1] = SJL/N female mice, dose 0.2 mg/kg po daily at days 3 to 7 and 10 to 12
[2] = SJL/N female mice, dose 1.0 mg/kg po daily at days 3 to 7 and 10 to 12
[3] = SJL/N female mice, dose 5.0 mg/kg po daily at days 3 to 7 and 10 to 12

| SMILES | aEAE inhibition (%) [1] | aEAE inhibition (%) [2] | activity in the aEAE model (in words) | further results |
| --- | --- | --- | --- | --- |
| Cc1csc2c1c(O)c(C(=O)N(C)c1ccccc1)c(=O)n2C [Compound #1, 6,7-dihydro-4-hydroxy-N-phenyl-N,3,7-trimethyl-6-oxo-thieno[2,3-b]pyridine-5-carboxamide] | 85% | 99% | – | – |
| O=C(Nc1cccnc1)c1c(O)c2ccsc2[nH]c1=O [6,7-dihydro-4-hydroxy-N-(3-pyridyl)-6-oxo-thieno[2,3-b]pyridine-5-carboxamide, reference compound] | – | – | inactive | – |
| CN(C(=O)c1c(O)c2sccc2n(C)c1=O)c1ccccc1 [compound 12, 4,5-dihydro-N,4-dimethyl-7-hydroxy-N-phenyl-5-oxo-thieno[3,2-b]pyridine-6-carboxamide, reference compound] | – | – | inactive | aEAE inhibition (%), result in words (SJL/N female mice, dose 5.0 mg/kg po, class word defined in footnote): inactive* |
| CN(C(=O)c1c(O)c2ccsc2n(C)c1=O)c1ccccc1 [compound 11, 6,7-dihydro-N,7-dimethyl-4-hydroxy-N-phenyl-6-oxo-thieno[2,3-b]pyridine-5-carboxamide] | – | 53% | – | – |
| COc1ccc(N(C)C(=O)c2c(O)c3c(C)csc3n(C)c2=O)cc1 [compound 6, 6,7-dihydro-4-hydroxy-N-(4-methoxyphenyl)-N,3,7-trimethyl-6-oxo-thieno[2,3-b]pyridine-5-carboxamide] | 92% | – | – | – |
| Cc1scc2c1c(O)c(C(=O)N(C)c1ccccc1)c(=O)n2C [compound 10, 4,5-dihydro-7-hydroxy-N-phenyl-N,1,4-trimethyl-5-oxo-2-thia-4-aza-indene-6-carboxamide] | – | 78% | – | aEAE inhibition (%) [3]: 95% |
| CCc1csc2c1c(O)c(C(=O)N(C)c1ccccc1)c(=O)n2C [compound 3, 6,7-dihydro-N,7-dimethyl-3-ethyl-4-hydroxy-N-phenyl-6-oxo-thieno[2,3-b]pyridine-5-carboxamide] | 84% | 100% | – | – |
| CCN(C(=O)c1c(O)c2c(C)csc2n(C)c1=O)c1ccccc1 [compound 2, 6,7-dihydro-3,7-dimethyl-N-ethyl-4-hydroxy-N-phenyl-6-oxo-thieno[2,3-b]pyridine-5-carboxamide] | 66% | 84% | – | – |
| Cc1csc2c1c(O)c(C(=O)N(C)c1cccnc1)c(=O)n2C [compound 13, 6,7-dihydro-4-hydroxy-N-(3-pyridyl)-N,3,7-trimethyl-6-oxo-thieno[2,3-b]pyridine-5-carboxamide, reference compound] | – | – | poorly active | aEAE inhibition (%) [3]: 46% |

Source: US7553849B2, “Compounds” (Active Biotech AB, priority 2004, dated 2009)
